Measurements as given in the NIST ThermoML archive (doi:10.1016/j.fluid.2007.07.066).

Assay: refractive index (Na D-line) (dimensionless); mn = molality of the nth substance listed, in mol/kg
Conditions: 298.15 K, 101 kPa, Liquid, Standard Abbe refractometry

O=P([O-])([O-])O.[Na+].[Na+] [disodium hydrogen phosphate] + O
Conditions | refractive index
m1 = 0.0049 | 1.3328
m1 = 0.0104 | 1.3329
m1 = 0.0154 | 1.3331
m1 = 0.0211 | 1.3333
m1 = 0.0413 | 1.334
m1 = 0.0712 | 1.3348
m1 = 0.1066 | 1.3357
m1 = 0.1437 | 1.3367
m1 = 0.1927 | 1.3379
m1 = 0.2475 | 1.3392
m1 = 0.3697 | 1.3421
m1 = 0.4438 | 1.3438
m1 = 0.5295 | 1.3458
m1 = 0.6125 | 1.3476
m1 = 0.6768 | 1.349
m1 = 0.7479 | 1.3505
m1 = 0.8346 | 1.3524
m1 = 0.9695 | 1.3551
